The values below come from patent US4767865A, “3'-pyridinylalkylinden- and 3'-pyridinylalkylindol-2-carboxylic acids and analogs” (The Upjohn Company, priority 1987, dated 1988).

For one assay, the system named is thromboxane synthetase. Kind of assay: Inhibition of Thromboxane A2 biosynthesis in platelet rich plasma. Type of assay: cell-based. The note with it: at 1 μg/ml. On the procedure:
In this system, 6-(3-pyridylmethyl)indene-2-carboxylic acid inhibited thromboxane synthetase 95% as compared to control at 1 μg/ml.

The next assay deals with T1, TXA2 synthetase (Homo sapiens, UniProt P24557).
T1 construct: from tissue; host or cells: HPM (read as human platelet microsomes)
T1 sequence (P24557 1-533): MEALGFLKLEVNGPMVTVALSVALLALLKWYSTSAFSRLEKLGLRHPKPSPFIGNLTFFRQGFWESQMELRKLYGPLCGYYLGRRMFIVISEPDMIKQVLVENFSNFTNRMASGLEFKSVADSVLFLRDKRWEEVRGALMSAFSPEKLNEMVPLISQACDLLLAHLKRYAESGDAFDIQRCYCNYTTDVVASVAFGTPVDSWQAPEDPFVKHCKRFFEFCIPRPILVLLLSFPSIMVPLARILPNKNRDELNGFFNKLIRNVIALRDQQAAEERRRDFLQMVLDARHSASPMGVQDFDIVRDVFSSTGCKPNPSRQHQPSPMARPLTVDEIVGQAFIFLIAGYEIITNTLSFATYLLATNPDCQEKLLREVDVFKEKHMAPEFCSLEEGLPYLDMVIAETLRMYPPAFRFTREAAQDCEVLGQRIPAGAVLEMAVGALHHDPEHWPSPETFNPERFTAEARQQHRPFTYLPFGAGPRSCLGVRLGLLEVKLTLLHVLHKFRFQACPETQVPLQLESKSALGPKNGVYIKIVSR
Kind of assay: TXA2 synthetase inhibition: TXA2 produced by mixing PGH2 and HPM, measured by response of the rabbit aorta. As to conditions: test compound added to HPM 5 minutes before mixing with PGH2, approximate. The class given is biochemical. The method, then:
Potential inhibitors were tested by comparing the response of the rabbit aorta to the amount of TXA2 produced by mixing PGH2 and HPM without the test compound in the reaction medium and then the amount of TXA2 produced when the test compound was added to the HPM 5 minutes before the HPM was mixed with PGH2. […] For a discussion of TXA2 synthetase inhibition testing see, e.g., R. Gorman, supra.

Where a name gives a salt, the structure may show the parent alone. Read-outs that look alike come from different tables or passages of the source.

Turning to `O=C(O)C1=Cc2ccc(Cc3cccnc3)cc2C1` [6-(3-Pyridylmethyl)indene-2-carboxylic Acid], the “inhibited thromboxane synthetase as compared to control” value in the assay with thromboxane synthetase amounted to 95%.

`O=C(O)c1cc2cc(NCc3cccnc3)ccc2[nH]1` [Sodium Salt]: the results for the IC50 at TXA2 synthetase (read-out: approximate ED50 (lower bound)) and on TXA2 synthetase (read-out: approximate ED50 (upper bound)) were greater than 346 nM and less than 3460 nM, respectively.
